The values that follow come from article PMC10606834, “Is the Neuropeptide PEN a Ligand of GPR83?” (International Journal of Molecular Sciences, 2023).

In experiment [1] the test system is GPR83 and GPR83del with Gα16 (HEK293). The experiment in a line: Intracellular calcium mobilization, Gα16-transfected HEK293 cells. The note with it: 10 µM PEN, 100 µM carbachol, 100 µM ATP, Fluo4-AM fluorescence, duplicate, repeated at least two times. It counts as cell-based, human. The procedure:
(§1) As activation of many GPCRs is coupled to calcium mobilization from intracellular stores, GPR83 was probed for ligand-dependent calcium release. Wild-type HEK293 cells and HEK293 clones overexpressing either full-length GPR83 or the N-terminal deletion variant GPR83del were exposed to buffer or one of two independent synthesis batches (PEN #1 and PEN #2) of the neuropeptide PEN, while calcium indicator fluorescence was recorded. […] Calcium release was also tested in a second cell line, osteosarcoma U2OS cells, using various stably expressing clones. […] Therefore, HEK293 cells transfected with Gα16 were employed to investigate a potential GPR83-dependent calcium mobilization with PEN. […] A number of GPCRs show ligand-independent basal calcium activity. However, in an experiment comparing basal calcium levels in wild-type HEK293 cells and in HEK293 clones overexpressing four different variants of GPR83, they were not found to be different (Figure 2D).
(§2) Figure 2 Investigation of ligand-dependent and ligand-independent intracellular calcium mobilization. (A) Wild-type HEK293 cells and HEK293 cell clones overexpressing either GPR83 or the deletion variant GPR83del were incubated with either buffer or the specified ligand (10 µM PEN or co mix = 100 µM carbachol, 100 µM ATP, 40 µM dimaprit, or 50 µM ionomycin). (B) Calcium indicator fluorescence intensity traces over 60 s of various U2OS cell clones overexpressing untagged or HA-tagged GPR83 or the deletion variant GPR83del before and after the addition of buffer or ligand (co mix as in (A) or 50 µM ionomycin or 10 µM PEN). […]
(§3) Cells were seeded at 50,000 cells/well in a poly-D-lysine coated 96-well black well/clear bottom plate (BD Falcon, Franklin Lakes, NJ, USA) and cultured overnight. […] Fluorescence was recorded with the fluorescence imaging plate reader CellLux (Perkin Elmer, Waltham, MA, USA) simultaneously in all wells at an excitation wavelength of 488 nm and emission wavelength of 510 nm in 1.5 s intervals over a period of 4 min. Fluorescence data were generated in duplicate, and experiments were repeated at least two times.
(In general: A change in cytosolic calcium serves as a functional read-out for many receptors and channels.)

Experiment [2] has as its system GPR83 and deletion variant GPR83del (HEK293 clones; wild-type HEK293 as comparison). The experiment in a line: Intracellular calcium mobilization, HEK293 cells. It counts as cell-based, human. The note with it: 10 µM PEN; co mix = 100 µM carbachol, 100 µM ATP, 40 µM dimaprit; 50 µM ionomycin; HEK293 wild-type, GPR83 or GPR83del clones; Fluo4-AM fluorescence, compared with buffer; duplicate, repeated at least two times. As for the experimental part: as §1, §2, §3

As for `C[N+](C)(C)CCOC(N)=O` [carbachol], the calcium signal result in experiment [1] is reported as “strongly enhanced the calcium signal”. On the same count and under the same terms, as for `Nc1ncnc2c1ncn2[C@@H]1O[C@H](COP(=O)(O)OP(=O)(O)OP(=O)(O)O)[C@@H](O)[C@H]1O` [ATP], the entry is “strongly enhanced the calcium signal”.

For the compound `C[C@H](CCC(=O)O)C[C@H](C)C[C@H](C)C(=O)/C=C(\O)[C@H](C)C[C@H](C)C/C=C/[C@@H](C)[C@@H](O)[C@@H](C)[C@@H](O)C[C@@H]1CC[C@@](C)([C@H]2CC[C@@](C)([C@@H](C)O)O2)O1` [ionomycin, reference compound], the calcium signal entry in experiment [2] is reported as “clear calcium signal above buffer background”.
